Reference: paper PMC3871529, “At a Supra-Physiological Concentration, Human Sexual Hormones Act as Quorum-Sensing Inhibitors” (PLoS ONE, 2013)
Values after ≈ are worked out from the molar mass of the structure shown. Where two headings read alike, the source gives them in different places.

How the values were obtained:
[1] = test system: Agrobacterium biosensor cells; assay: Minimal inhibitory concentration (MIC); assay type: cell-based, Agrobacterium tumefaciens; settings: 10^5 CFU/ml, 36 h at 30°C
Experimental: (§1) Aside from the effect of QSI on QS regulation, the toxicity of these compounds was tested on bacterial cells by measuring two parameters: the minimal inhibitory concentration (MIC) and minimal bactericidal concentration (MBC). MIC, which is the lowest concentration of QSI (µg/ml) inhibiting any visible culture after 36 h of incubation at 30°C, was estimated by culturing 10^5 CFU/ml of the Agrobacterium biosensor cells in the presence of different concentrations of the QSI. MBC, which is the lowest concentration of QSI (µg/ml) that results in a 99.9% reduction of the initial bacterial population (10^5 CFU/ml) after 36 h of incubation at 30°C in the presence of different concentrations of QSI, was estimated by plating 100 µL of the Agrobacterium cultures on agar LBm plates. After an incubation of 48 h at 30°C, CFU were counted and the MBC values were calculated.

[2] = test system: A. tumefaciens NT1(pZLR4) traG-lacZ reporter fusion; assay: QSI activity on A. tumefaciens AHL-bioindicator (traG-lacZ β-galactosidase); assay type: cell-based, Agrobacterium tumefaciens; settings: for QSI hit in library screening: second screening: compounds at 5 µg/ml, C8-HSL 10 nM, A. tumefaciens biosensor; for inhibition at 100 µg/mL: Agrobacterium tumefaciens, read-out: inhibition (%) at 100 µg/ml
Experimental: Two bacterial QS-signal biosensors were used. Chromobacterium violaceum CV026 [41] was grown in Luria-Bertani modified (LBm) medium, in which the NaCl concentration was 5 g/l instead of 10 g/l. Agrobacterium tumefaciens NT1(pZLR4) was grown in AB minimal medium supplemented with mannitol (0.2%). After supplementation with appropriate AHL, each of the QS-biosensors expresses a reporting activity, which is the production of the pigment violacein in C. violaceum CV026 and that of β-galactosidase from the transcriptional fusion traG::lacZ in A. tumefaciens NT1(pZLR4).
When the screening was performed, the chemical library of the Institut de Chimie des Substances Naturelles (ICSN, Gif-sur-Yvette, France) contained more than 3500 synthetic and natural compounds, which were individually dissolved in dimethylsulfoxide (DMSO) at 1mg/ml and stored in 96 microwell plates. A first screening was performed by mixing biosensor CV026 with the AHL hexanoylhomoserine lactone (C6-HSL) at 0.5 µM and the tested compounds at 50 µg/ml. Final volume was adjusted to 100 µl with a synthetic medium (10% LBm and 0.4% sucrose). After 24 hours of incubation at 30°C, the presence or absence of violacein pigment was quoted by visual reading. […] Final volume was adjusted to 100 µl by the addition of AB minimal medium supplemented with mannitol (0.2%) and TY medium (10%). After 4 hours of incubation at 30°C, β-galactosidase activity was measured in A. tumefaciens cultures as previously described. In the two screenings, 4-nitropyridine-N-oxide (4-NPO) was used as a QSI reference. […]

[3] = test system: Agrobacterium biosensor cells; assay: Minimal bactericidal concentration (MBC); assay type: cell-based, Agrobacterium tumefaciens; settings: Agrobacterium; 99.9% reduction of 10^5 CFU/ml after 36 h at 30°C; read-out: MBC
Experimental: as §1

[4] = test system: QS-regulated Ti-plasmid transfer in A. tumefaciens; assay: QS-regulated Ti-plasmid transfer (conjugation) assay; assay type: cell-based, Agrobacterium tumefaciens; settings: QSI at 0.1 mg/ml, OC8-HSL 500 pM, 72 h at 24°C
Experimental: Figure 4 In vitro Ti plasmid transfer frequency in Agrobacterium. The Ti plasmid transfer frequencies were measured in the presence of QSI (A) and the four 1248-diastereoisomeres (B) at 0.1 mg/ml. Histograms represent the cell density of transconjugants (CFU/ml), while black diamonds and squares, those of the donor and recipient strains, respectively. Measurements were performed in quadruplicate and the experiment was repeated twice. The cell densities of transconjugants in the presence of QSI were compared to that of the control in the presence of DMSO with a Mann and Whitney test (α = 0.05). Statistically different values are noted by asterisks.
In A. tumefaciens, the transfer of the Ti-plasmid from a donor cell to a recipient one is controlled by QS. QSI were evaluated for their capacity to reduce plasmid transfer frequency in Agrobacterium. In the plasmid transfer assay, two modified Agrobacterium strains were used: a Ti-plasmid donor, which requires exogenous AHL to transfer a kanamycin-resistant (Km^r) Ti-plasmid, and a rifampicin-resistant (Rif^r) recipient strain, which is free of Ti-plasmid. Overnight cultures of the donor and recipient strains were mixed with 500 pM of oxo-octanoylhomoserine lactone (OC8-HSL) and 0.1 mg/ml of QSI in LBm medium. Each combination was repeated 4 times in microwell plates.

P. aeruginosa = assay: Growth kinetics of P. aeruginosa in the presence of QSIs; assay type: cell-based, Pseudomonas aeruginosa; settings: QSI at 0.5 mg/ml, OD600 and CFU at 8 and 18 hour
Experimental: (§2) Figure 5 QSIs modulated QS-signal accumulation in P. aeruginosa. Growth kinetics (n = 6) of P. aeruginosa was measured (OD600) in the presence of the QSIs (estradiol, estrone, estriol, hordenine and 4-NPO) at 0.5 mg/ml using DMSO as a negative control. Cell counts were assessed (CFU/ml) at 8- and 18-hour, and C4-HSL and OC12-HSL concentration (µM) were determined in the bacterial cultures at 18-hour. Statistically different values (Student's t test with α = 0.01) are noted by asterisks.
(§3) QS gene transcription in P. aeruginosa PAO1 was monitored using PAO1 strains carrying various gene promoters fused to a lacZ reporter gene, as described in Vandeputte et al., 2010 and Table 1. PAO1 reporter strains were prepared according to Vandeputte et al.. Briefly, 18-hours-old liquid cultures (50 µl) were diluted in order to obtain a starting OD600 nm comprised between 0.02 and 0.03 in fresh LB medium supplemented with 50 mM MOPS pH 7.0 (1 ml), carbenicillin (300 µg/ml) and 10 µl of the QSIs to be tested (OD were measured using a SpectraMax M2 device from Molecular Devices). Test and control QSIs were diluted in 100% DMSO (resulting after addition to the growth medium in a 1% final concentration of DMSO). Cultures were incubated for 18 hours at 37°C with agitation. After incubation, cell densities were assessed spectrophotometrically (OD600 nm) and β-galactosidase assays were performed using the substrate o-nitrophenyl-β-D-galactopyranoside as described previously, [29]. Promoterless-lacZ fusions were used as controls. AHLs were quantified as described in Vandeputte et al.. All tests were performed in quintuplicates and three biological repetitions. The statistical significance of each test was evaluated by conducting Student's t tests and two-way ANOVA combined with the Tukey post-analysis test using the GraphPad Prism software and p values≤0.01 were considered significant.

[5] = test system: QS-signal accumulation in P. aeruginosa; assay: AHL (C4-HSL, OC12-HSL) quantification in P. aeruginosa cultures by mass spectrometry; assay type: cell-based, Pseudomonas aeruginosa; settings: QSI at 0.5 mg/ml, 18-hour
Experimental: as §2, §3

SMILES | MIC ([1]; Agrobacterium, read-out: MIC) [µg/mL] | QSI hit in library screening [2] | MBC [3] [µg/mL] | effect on Ti plasmid transfer frequency (words) [4] | inhibition at 100 µg/mL [2] [%] | MIC [1] | effect on growth of P. aeruginosa (P. aeruginosa) | decrease of plasmid transfer efficiency [4] [fold] | C4-HSL concentration in cell cultures [5] | OC12-HSL concentration in cell cultures [5]
CC1C2CCC3C4CC=C5CC(N)CCC5(C)C4CCC32CN1C.Cl (stereo not drawn) [Compound 283, 2,3,11a-Trimethyl-2,3,3a,4,5,5a,5b,6,8,9,10,11,11a,11b,12,13-hexadecahydro-1H-2-aza-pentaleno[1,6a-a]phenanthren-9-ylamine hydrochloride] | > 100 | hits | > 100 |  |  |  |  |  |  | 
C[C@H](NC[C@@H]1Cc2ccccc2N1)c1cccc2ccccc12 [(S,S)-1248, (S)-N-((S)-indolin-2-ylmethyl)-1-(naphthalen-1-yl)ethanamine] | 100 (≈ 331 µM) |  | > 100 |  |  |  |  |  |  | 
C[C@@H](NC[C@@H]1Cc2ccccc2N1)c1cccc2ccccc12 [(S,R)-1248, (R)-N-((S)-indolin-2-ylmethyl)-1-(naphthalen-1-yl)ethanamine] | 100 (≈ 331 µM) |  | 100 (≈ 331 µM) |  |  |  |  |  |  | 
CN1CCc2c([nH]c3ccccc23)C1 [Compound 3492] | > 100 | hits | > 100 |  |  |  |  |  |  | 
Cc1ccc(S(=O)(=O)CCC(=O)c2ccccc2)cc1 [Compound 1577] | 3 (≈ 10.4 µM) | hits | 25 (≈ 86.7 µM) | significantly reduce the plasmid transfer frequency by one order of magnitude |  |  |  |  |  | 
C[C@H](NC[C@H]1Cc2ccccc2N1)c1cccc2ccccc12 [(R,S)-1248, (S)-N-((R)-indolin-2-ylmethyl)-1-(naphthalen-1-yl)ethanamine] | 100 (≈ 331 µM) |  | 100 (≈ 331 µM) |  | 0 |  |  |  |  | 
C[C@@H](NC[C@H]1Cc2ccccc2N1)c1cccc2ccccc12 [(R,R)-1248, (R)-N-((R)-indolin-2-ylmethyl)-1-(naphthalen-1-yl)ethanamine] | 100 (≈ 331 µM) |  | 100 (≈ 331 µM) |  | 10 |  |  |  |  | 
Cc1cn(COCCSc2ccccc2)c(=O)[nH]c1=O [Compound 1949, 5-Methyl-1-(2-phenylsulfanyl-ethoxymethyl)-1H-pyrimidine-2,4-dione] | > 100 | hits | > 100 |  | 38 |  |  |  |  | 
CC(NCC1Cc2ccccc2N1)c1cccc2ccccc12 (stereo not drawn) [Compound 1248] | > 100 | hits | > 100 |  |  |  |  |  |  | 
CCC12CCCN3CCC4(C(=C(C(=O)OC)C1)Nc1ccccc14)C32 (stereo not drawn) [Compound 14] | > 100 | hits | > 100 |  | 0 |  |  |  |  | 
COc1nc([N+](=O)[O-])nn1[C@H]1C[C@H](O)[C@@H](CO)O1 [Compound 1102] | > 100 | hits | > 100 | significantly reduce the plasmid transfer frequency by one order of magnitude | 0 |  |  |  |  | 
CC(C)CCC[C@@H](C)[C@H]1CCC2C3CC=C4C[C@@H](Cl)CC[C@]4(C)C3CC[C@@]21C (stereo partly drawn) [Compound 1099] | 100 (≈ 247 µM) | hits | > 100 | significantly reduce the plasmid transfer frequency by one order of magnitude |  |  |  |  |  | 
CC(C)CCC[C@@H](C)[C@H]1CCC2C3CCC4CC(=O)CC[C@]4(C)C3CC[C@@]21C (stereo partly drawn) [Compound 1868] | 12.5 (≈ 32.3 µM) | hits | > 100 |  | 34 | 12,5 µg/ml |  |  |  | 
C=C[C@H]1CN2CC[C@H]1C[C@H]2[C@H](O)c1ccnc2ccc(OC)cc12 [Compound 937] | > 100 | hits | > 100 |  | 15 |  |  |  |  | 
CC/C=C\C[C@H]1C(=O)CC[C@@H]1CC(=O)O [Jasmonic acid, jasmonic acid, reference compound] | > 100 |  | > 100 |  |  |  |  |  |  | 
O=[N+]([O-])c1cc[n+]([O-])cc1 [Compound 4-NPO, 4-nitropyridine-N-oxide, reference compound] | 25 (≈ 178 µM) |  | > 100 |  |  |  | slightly delayed the growth | 10 | reduction | reduction
